“And” between values parts separate entries of the source, which are not always exact repeats. Identical values can stand only once. Like-named read-outs stand apart in the source and are kept apart here. Where a SMILES comes first, the peptide text is derived from it. Where no end group is shown, it is not given here. [ ]: non-standard residue; d: D form. The star is where a group is joined. Hexanoyl = CCCCCC(=O)*; Aib = CC(C)(N)C(=O)O
What was measured:
[1] = biological target: T1, human PAC1 (Homo sapiens, UniProt P41586); test: Filter binding assay, membranes of cells transiently transfected with human PAC1, 125I-labeled PACAP-27 tracer (Table 2); parameters: expressed in transfected cells
T1 sequence (P41586 21-468): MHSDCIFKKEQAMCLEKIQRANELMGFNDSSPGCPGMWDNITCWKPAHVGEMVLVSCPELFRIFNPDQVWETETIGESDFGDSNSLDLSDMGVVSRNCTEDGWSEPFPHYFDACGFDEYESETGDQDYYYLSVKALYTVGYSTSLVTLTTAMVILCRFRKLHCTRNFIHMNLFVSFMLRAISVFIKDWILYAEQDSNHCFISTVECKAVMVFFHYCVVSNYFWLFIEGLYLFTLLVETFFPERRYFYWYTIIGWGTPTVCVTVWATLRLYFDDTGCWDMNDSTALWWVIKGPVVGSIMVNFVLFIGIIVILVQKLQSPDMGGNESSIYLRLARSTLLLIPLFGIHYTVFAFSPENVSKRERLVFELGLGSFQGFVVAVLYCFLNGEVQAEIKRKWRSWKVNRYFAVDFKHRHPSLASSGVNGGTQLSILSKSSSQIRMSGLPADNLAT
How it was run: (§1)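 Radioligand displacement was measured with 2.5 μg membrane protein per well and roughly 40000 cpm of iodinated tracer. After a 1-hour incubation, bound and free label were separated on BSA-blocked glass-fibre filters and quantified by scintillation.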

[2] = biological target: T2, human VPAC2 (Homo sapiens, UniProt P41587); test: Alpha screen cAMP in vitro potency, human VPAC2 receptor; format: cell-based
T2 construct: expressed in transfected cells
T2 sequence (P41587 24-438): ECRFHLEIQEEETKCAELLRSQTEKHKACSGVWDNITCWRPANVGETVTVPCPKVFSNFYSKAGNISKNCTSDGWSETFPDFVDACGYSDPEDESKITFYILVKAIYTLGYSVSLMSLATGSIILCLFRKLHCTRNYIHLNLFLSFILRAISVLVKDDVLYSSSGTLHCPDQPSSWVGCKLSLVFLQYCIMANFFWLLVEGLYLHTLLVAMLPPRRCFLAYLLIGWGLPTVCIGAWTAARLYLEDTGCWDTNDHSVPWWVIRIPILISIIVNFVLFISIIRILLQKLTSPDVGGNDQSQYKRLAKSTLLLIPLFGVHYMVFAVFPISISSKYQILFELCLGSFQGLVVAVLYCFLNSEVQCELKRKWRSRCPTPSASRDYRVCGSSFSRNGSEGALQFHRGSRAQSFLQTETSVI
How it was run: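 Dissociated cells, 50,000 per point in stimulation buffer, were incubated with stimuli and AlphaScreen acceptor beads for 60 min.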

[3] = tested on: Normal Wistar rats; test: Intravenous glucose tolerance test (IVGTT); format: in vivo, rat; settings: for % increase AUC: Dose = 0.5 μg/kg / % increase AUC: Dose = 10 μg/kg: IVGTT, insulin
Procedure: Intravenous glucose tolerance test (IVGTT): Normal Wistar rats are fasted overnight and are anesthetized prior to the experiment. A blood sampling catheter is inserted into the rats. The compound is given in the jugular vein. Blood samples are taken from the carotid artery. A blood sample is drawn immediately prior to the injection of glucose along with the compound. After the initial blood sample, glucose mixed with compound is injected intravenously (i.v.). A glucose challenge of 0.5 g/kg body weight is given, injecting a total of 1.5 mL vehicle with glucose and agonist per kg body weight. The peptide concentration vary to produce the desired dose in μg/kg. Blood samples are drawn at 2, 4, 6 and 10 minutes after giving glucose. The control group of animals receives the same vehicle along with glucose, but with no compound added. In some instances, a 30 minute post-glucose blood sample is drawn. Aprotinin is added to the blood sample (250 kIU/ml blood). The serum is then analyzed for glucose and insulin using standard methodologies.
The assay uses a formulated and calibrated peptide stock in PBS. Normally, this stock is a prediluted 100 μM stock. However, a more concentrated stock with approximately 1 mg agonist per mL is used. The specific concentration is always known. Variability in the maximal response is mostly due to variability in the vehicle dose.

[4] = biological target: T2, human VPAC2; test: Filter binding assay, membranes of stable VPAC2 cell line, 125I-labeled VIP tracer (Table 2)
How it was run: as §1

[5] = biological target: T3, human VPAC1 (Homo sapiens, UniProt P32241); test: Filter binding assay, membranes of cells transiently transfected with human VPAC1, 125I-labeled VIP tracer (Table 2); parameters: expressed in transfected cells
T3 sequence (P32241 31-457): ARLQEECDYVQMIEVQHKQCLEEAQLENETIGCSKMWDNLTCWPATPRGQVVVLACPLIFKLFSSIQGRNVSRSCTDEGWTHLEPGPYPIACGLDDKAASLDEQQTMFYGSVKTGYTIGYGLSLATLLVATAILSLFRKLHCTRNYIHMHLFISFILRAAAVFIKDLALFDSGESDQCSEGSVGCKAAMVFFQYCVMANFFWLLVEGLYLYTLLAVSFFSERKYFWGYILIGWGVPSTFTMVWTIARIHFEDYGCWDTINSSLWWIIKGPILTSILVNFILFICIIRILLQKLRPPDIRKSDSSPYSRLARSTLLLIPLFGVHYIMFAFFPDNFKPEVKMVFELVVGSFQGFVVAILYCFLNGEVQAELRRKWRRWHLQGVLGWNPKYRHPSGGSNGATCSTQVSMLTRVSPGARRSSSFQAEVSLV
How it was run: as §1

[6] = rat, in vivo, iv; for Exposure (10 μg/kg, Vdist in μg/(nM * kg)): 10 ug/kg
Procedure: An IVGTT with glucose is given immediately after T=0 to 6 animals per condition. Samples are taken at 0, 2, 4, 6, and 10 minutes after injection.
For cell handling, Plate 50,000 cells/well and keep in culture over night. Wash cell twice in PBS and add 50 μl/well stimulation medium consisting of PBS+1.2 MgCl2, 1.3 CaCl2, 2 glucose and 0.5 IBMX. Incubate 15 minutes and add 50 μl/well of the plasma samples (see layout below). Incubate 30 minutes, remove the supernatant and proceed as normal with the DiscoveRx assay. Prepare plates in duplicate. Protease and peptidase inhibitor are present in all plasma samples.

[7] = read-out: Human PAC1 Receptor Binding
[8] = cAMP generation, single result from two analyses performed in a single run, read-out: Human VPAC2 Receptor: Alpha Screen EC50
[9] = read-out: Human VPAC2 Receptor Binding
[10] = read-out: Human VPAC1 Receptor Binding

| Compound | IC50 [1, 7] | EC50 [2, 8] | % increase AUC: Dose = 0.5 μg/kg [3] | % increase AUC: Dose = 10 μg/kg [3] | IC50 [4, 9] | IC50 [5, 10] | Exposure (10 μg/kg, Vdist in μg/(nM * kg)) [6] | Exposure (0.5 μg/kg, Vdist in μg/(nM * kg)) ([6]; 0.5 ug/kg) | IVGTT ED50 [3] | IC50 [1] | EC50 [2] | IC50 [4] | IC50 [5] |
| --- | --- | --- | --- | --- | --- | --- | --- | --- | --- | --- | --- | --- | --- |
| Hexanoyl-HSDAVFTDNYTRLR[Aib]QVAAK[Aib]YLQSIKNKRYGGPSSGAPPPS [Agonist P264] | > 25000 nM | 0.1 nM | 10% | 95% | 0.88 nM | > 3000 nM | 5.1 µg/nM/kg |  |  |  |  |  |  |
| CCCCCC(=O)N[C@@H](Cc1c[nH]cn1)C(=O)N[C@@H](CO)C(=O)N[C@@H](CC(=O)O)C(=O)N[C@@H](C)C(=O)N[C@H](C(=O)N[C@@H](Cc1ccccc1)C(=O)N[C@H](C(=O)N[C@@H](CC(=O)O)C(=O)N[C@@H](CC(N)=O)C(=O)N[C@@H](Cc1ccc(O)cc1)C(=O)N[C@H](C(=O)N[C@@H](CCCNC(=N)N)C(=O)N[C@@H](CC(C)C)C(=O)N[C@@H](CCCNC(=N)N)C(=O)NC(C)(C)C(=O)N[C@@H](CCC(N)=O)C(=O)N[C@@H](CC(C)C)C(=O)N[C@@H](C)C(=O)N[C@@H](C)C(=O)NC(C)(C)C(=O)N[C@@H](CCCCN)C(=O)N[C@@H](Cc1ccc(O)cc1)C(=O)N[C@@H](CC(C)C)C(=O)N[C@@H](CCC(N)=O)C(=O)N[C@@H](CO)C(=O)N[C@H](C(=O)N[C@@H](CCCCN)C(=O)N[C@@H](CC(N)=O)C(=O)N[C@@H](CCCCN)C(=O)NCC(=O)NCC(=O)N1CCC[C@H]1C(=O)N[C@@H](CO)C(=O)N[C@@H](CO)C(=O)NCC(=O)N[C@@H](C)C(=O)N1CCC[C@H]1C(=O)N1CCC[C@H]1C(=O)N1CCC[C@H]1C(=O)N[C@@H](CO)C(=O)O)[C@@H](C)CC)[C@@H](C)O)[C@@H](C)O)C(C)C [Agonist P292] (Hexanoyl-HSDAVFTDNYTRLR[Aib]QLAA[Aib]KYLQSIKNKGGPSSGAPPPS-OH; C-terminus assumed) | > 25000 nM | 0.23 nM | 292% | 370% | 0.3 nM | > 3000 nM | 1.9 µg/nM/kg | 9.5 µg/nM/kg |  |  |  |  |  |
| Hexanoyl-HSDAVFTDNYTRLLAKLALQKYLQSIKNKRYGGPSSGAPPPS [Agonist P119] | > 25000 nM | 0.42 nM | 118% | 240% | 0.48 nM | > 3000 nM |  |  | 0.3 µg/kg |  |  |  |  |
| H-MHSDAVFTDNYTRLRKQVAAKKYLQSIKNKRYGGPSSGAPPPS [Agonist P104] |  |  | 142% and 205% | 198% and 370% |  |  |  |  |  | 117 nM | 0.27 nM | 0.68 nM | 301 nM |
| Hexanoyl-HSDAVFTDNYTRLRKQVAAKKYLQSIKNKRYGGPSSGAPPPS [Agonist P31] | 406 nM | 0.13 nM | 250% |  | 0.23 nM | 145 nM | 10 µg/nM/kg |  |  |  |  |  |  |
| Hexanoyl-HSDAVFTDNYTRLR[Aib]QVAA[Aib]KYLQSIKNKRYGGPSSGAPPPS [Agonist P261] | > 25000 nM | 0.09 nM | 136% | 320% | 0.2 nM | 1000 nM | 0.8 µg/nM/kg |  |  |  |  |  |  |

Source: patent US20080026996A1, “Selective Vpac2 Receptor Reptide Agonists” (ELI LILLY AND COMPANY, priority 2004, published 2008)
